Results from ChEMBL document CHEMBL3301451, “MMV Malaria Box gametocyte functional viability assay screening”.

Columns and labels:
[1] = tested on: Plasmodium berghei; assay: (§1) MMV: P. berghei-infected blood was withdrawn from mice by cardiac pucture before being immediately added to ookinete culture medium containing test compounds. 26 hr later, GFP-positive ookinetes were identified and counted by automated microscopy. All compounds were tested in 4 independent experiments and data presented here is the mean.; type: functional; parameters: concentration or dose not given beside the values
[2] = tested on: Plasmodium falciparum; assay: (§2) MMV: P. falciparum NF54 functionally mature Stage V gametocytes were incubated for 24 hr in the presence of the test compounds. Gamete formation was then triggered by addition of 2uM xantheurenic acid and temperature decrease to ~20C. Female gamete formation was recorded 24 hr later by automated microscopy detection of surface labelling of female gametes with a Cy3-conjugated antibody reactive to Pfs25. All compounds were tested in 4 independent experiments and data presented here is the mean.; type: functional; parameters: concentration or dose not given beside the values; settings: NF54, 24 h
[3] = tested on: Plasmodium berghei; assay: as §1, with “mean. IC50s determined for selected compounds.” for “mean.”; type: functional, organism-based
[4] = tested on: Plasmodium falciparum; assay: (§3) MMV: P. falciparum NF54 functionally mature Stage V gametocytes were incubated for 24 hr in the presence of the test compounds. Gamete formation was then triggered by addition of 2uM xantheurenic acid and temperature decrease to ~20C. Male gamete exflagellation was recorded and analysed by automated microscopy after 20 min. All compounds were tested in 4 independent experiments and data presented here is the mean.; type: functional; parameters: concentration or dose not given beside the values
[5] = tested on: Plasmodium falciparum; assay: as §3, with “mean. IC50s determined for selected compounds.” for “mean.”; type: functional, organism-based
[6] = tested on: Plasmodium falciparum; assay: as §2, with “mean. IC50s determined for selected compounds.” for “mean.”; type: functional, organism-based; settings: NF54, 24 h

| IC50 [3] | IC50 [5] | IC50 [6] | SMILES | inhibition [1] | inhibition [2] | inhibition [4] |
| --- | --- | --- | --- | --- | --- | --- |
| 292 nM | 130 nM | 1070 nM | CN(C)CCCNc1c2ccccc2nc2ccccc12 | 96.2% | 24.6% | 97.5% |
| 5760 nM | 3710 nM | > 50000 nM | COc1ccc(-c2cc3c(nn2)-c2ccccc2C3=O)cc1 | 2.461% | -5.89% | 71.3% |
| 3490 nM | 183 nM | 473 nM | COc1ccc(C2c3ccc4ccccc4c3Oc3ncn(CCCN(C)C)c(=N)c32)cc1 (configuration not stated) | -7.365% | 27.3% | 83.6% |
| 287 nM | 570 nM | > 50000 nM | CCOC(=O)c1cnc2ccc(CC)cc2c1O | 97.88% | 9.93% | 65.8% |
| 12800 nM | 3240 nM | > 50000 nM | OC1=C2C(=Nc3ccccc3SC2c2ccccc2)c2ccccc21 (configuration not stated) | 97.46% | -16.4% | 58.8% |
| 464 nM | 241 nM | 384 nM | COc1cccc(NC(=O)[C@H](C(C)C)n2c(=O)[nH]c3ccccc3c2=O)c1 | 58.53% | 36.6% | 70.9% |
| 96.2 nM | 481 nM | > 50000 nM | COc1ccc(C=C2SC(=N)N(c3ccccc3OC)C2=O)cc1 | 72.74% | -7.34% | 77.3% |
| 487 nM | 288 nM | > 50000 nM | CCn1c(CN2CCN(Cc3ccccc3)CC2)nc2cc(NC(=O)c3cccs3)ccc21 | 78.13% | -15.4% | 67.4% |
| 7820 nM | 25.5 nM | 159 nM | Cl.Clc1cc(Br)ccc1-c1ccc(CNCC2CCNCC2)o1 | -9.542% | 38.1% | 74.1% |
| 1060 nM | 2140 nM | > 50000 nM | O=C1c2ccccc2C2=Nc3ccccc3SC(c3cccc(F)c3)C12 (configuration not stated) | 71.31% | 11% | 70.7% |
| 4250 nM | 96 nM | > 50000 nM | COc1ccccc1NC1=C(N2CCCCC2)C(=O)c2ccccc2C1=O | -14.08% | -15.9% | 96.8% |
| 2190 nM | 365 nM | > 50000 nM | CCOC(=O)c1cn(CC)c2cc(N3CCCCC3)c(F)cc2c1=O | 41.89% | -15.2% | 92.4% |
| 208 nM | 237 nM | > 50000 nM | CCOC(=O)c1ccc2nc(-c3ccccc3)cc(O)c2c1 | 27.95% | 2.21% | 63.6% |
| 16400 nM | 384 nM | 614 nM | OC1CCCCC1C1(NC(=S)Nc2ccccc2)CCCCC1 (configuration not stated) | 14.01% | 73.8% | 80.7% |
| 2270 nM | 3410 nM | > 50000 nM | OC1=C2C(=Nc3ccccc3SC2c2ccc(Br)cc2)c2ccccc21 (configuration not stated) | 56.77% | 8.27% | 62.9% |
| 6500 nM | 139 nM | 189 nM | CC1CC2=C(CC1CNCCCN(C)C)C(C)(C)CCC2 (configuration not stated) | -10.78% | 56.1% | 62.3% |
| 991 nM | 977 nM | 446 nM | CN(C)c1ccc(C(O)(c2ccc(N(C)C)cc2)c2ccc(N(C)C)cc2)cc1 [METHYLROSANILINE] | 62.53% | 44.6% | 19.7% |
